ChEMBL document CHEMBL4651402, “Screening of ~5500 FDA-approved drugs and clinical candidates for anti-SARS-CoV-2 activity” (2021)
pIC50: −log10 of the molar value. Where a name gives a salt, the structure may show the parent alone.

Tested on: SARS-CoV-2
Experiment: microbe, parasite or virus in culture
Conditions: Severe acute respiratory syndrome coronavirus 2, Vero C1008, 48 h; for IC50: read-out: pIC50 (converted)

SMILES | pIC50 | IC50
CC(C)(C)NCC(O)c1ccc(O)c(CO)c1 (stereo not drawn) [ALBUTEROL] | < 4.70 | > 20 µM
CN1CCC(=C2c3ccccc3CCn3c(C=O)cnc32)CC1 [ALCAFTADINE] | < 4.70 | > 20 µM
C=CCOc1ccc(CC(=O)O)cc1Cl [ALCLOFENAC] | < 4.70 | > 20 µM
CCC(=O)OCC(=O)[C@@]1(OC(=O)CC)[C@H](C)C[C@H]2[C@H]3[C@H]([C@@H](O)C[C@@]21C)[C@@]1(C)C=CC(=O)C=C1C[C@H]3Cl [ALCLOMETASONE DIPROPIONATE] | < 4.70 | > 20 µM
CCc1cc2c(cc1N1CCC(N3CCOCC3)CC1)C(C)(C)c1[nH]c3cc(C#N)ccc3c1C2=O [ALECTINIB] | < 4.70 | > 20 µM
NCCCC(O)(P(=O)(O)O)P(=O)(O)O [ALENDRONIC ACID] | < 4.70 | > 20 µM
C=CCC(N)Cc1ccccc1 (stereo not drawn) [ALETAMINE] | < 4.70 | > 20 µM
CCCCC(CC)CNC(=N)NC(=N)NCCCCCCNC(=N)NC(=N)NCC(CC)CCCC (stereo not drawn) [ALEXIDINE] | < 4.70 | > 20 µM
OC[C@H]1O[C@@H]2O[C@H]3[C@H](O)[C@@H](O)[C@@H](O[C@H]4[C@H](O)[C@@H](O)[C@@H](O[C@H]5[C@H](O)[C@@H](O)[C@@H](O[C@H]6[C@H](O)[C@@H](O)[C@@H](O[C@H]7[C@H](O)[C@@H](O)[C@@H](O[C@H]1[C@H](O)[C@H]2O)O[C@@H]7CO)O[C@@H]6CO)O[C@@H]5CO)O[C@@H]4CO)O[C@@H]3CO [ALFADEX] | < 4.70 | > 20 µM
CC(=O)[C@H]1CC[C@H]2[C@@H]3CC[C@H]4C[C@H](O)CC[C@]4(C)[C@H]3C(=O)C[C@]12C [ALFAXALONE] | < 4.70 | > 20 µM
COc1cc2nc(N(C)CCCNC(=O)C3CCCO3)nc(N)c2cc1OC (stereo not drawn) [ALFUZOSIN] | < 4.70 | > 20 µM
COc1cc(Nc2ncc3c(n2)-c2ccc(Cl)cc2C(c2c(F)cccc2OC)=NC3)ccc1C(=O)O [ALISERTIB] | < 4.70 | > 20 µM
C/C=C/C[C@@H](C)[C@@H](O)[C@H]1C(=O)N[C@@H](CC)C(=O)N(C)[C@H](C)C(=O)N(CC)[C@@H](C(C)C)C(=O)N[C@@H](C(C)C)C(=O)N(C)[C@@H](CC(C)C)C(=O)N[C@@H](C)C(=O)N[C@H](C)C(=O)N(C)[C@@H](CC(C)C)C(=O)N(C)[C@@H](CC(C)C)C(=O)N(C)[C@@H](C(C)C)C(=O)N1C [ALISPORIVIR] | < 4.70 | > 20 µM
C=CCN1CCCC1CNC(=O)c1cc2nn[nH]c2cc1OC (stereo not drawn) [ALIZAPRIDE] | < 4.70 | > 20 µM
NC(=O)NC1NC(=O)NC1=O (stereo not drawn) [ALLANTOIN] | < 4.70 | > 20 µM
C=CC(=O)Nc1ccc2ncnc(Nc3ccc(OCc4cccc(F)c4)c(Cl)c3)c2c1 [ALLITINIB] | < 4.70 | > 20 µM
C=CCC1(CC=C)C(=O)NC(=O)NC1=O [ALLOBARBITAL] | < 4.70 | > 20 µM
Oc1ncnc2[nH]ncc12 [ALLOPURINOL] | < 4.70 | > 20 µM
O=C1NC(=O)C(=O)C(=O)N1 [ALLOXAN] | < 4.70 | > 20 µM
O=c1[nH]c(=O)c2nc3ccccc3nc2[nH]1 [ALLOXAZINE] | < 4.70 | > 20 µM

SMILES | pIC50 | IC50
C=CC[C@]1(O)CC[C@H]2[C@@H]3CCC4=CCCC[C@@H]4[C@H]3CC[C@@]21C [ALLYLESTRENOL] | < 4.70 | > 20 µM
C=CCNc1nc(NCC=C)nc(N2CCN(C(c3ccc(F)cc3)c3ccc(F)cc3)CC2)n1 [ALMITRINE] | < 4.70 | > 20 µM
CN(C)CCc1c[nH]c2ccc(CS(=O)(=O)N3CCCC3)cc12 [ALMOTRIPTAN] | < 4.70 | > 20 µM
Cn1c(=O)cc(N2CCC[C@@H](N)C2)n(Cc2ccccc2C#N)c1=O [ALOGLIPTIN] | < 4.70 | > 20 µM
Cc1[nH]cnc1CN1CCc2c(c3ccccc3n2C)C1=O [ALOSETRON] | < 4.70 | > 20 µM
Cc1cn([C@H]2C[C@H](F)[C@@H](CO)O2)c(=O)[nH]c1=O [ALOVUDINE] | < 4.00 | > 100 µM
Cc1nc(NC(=O)N2CCC[C@H]2C(N)=O)sc1-c1ccnc(C(C)(C)C(F)(F)F)c1 [ALPELISIB] | < 4.70 | > 20 µM
CCOC(=O)c1[nH]c2cc(OC)c(OC)cc2c1CCN1CCN(c2ccccc2)CC1 [ALPERTINE] | < 4.70 | > 20 µM
CC1(C)C(C=C(Cl)Cl)C1C(=O)OC(C#N)c1cccc(Oc2ccccc2)c1 (stereo not drawn) [ALPHA-CYPERMETHRIN] | < 4.70 | > 20 µM
O=C(O)CCC(=O)C(=O)O [ALPHA-KETOGLUTARIC ACID] | < 4.70 | > 20 µM
CC[C@@H](O)C(C[C@@H](C)N(C)C)(c1ccccc1)c1ccccc1 [ALPHAMETHADOL] | < 4.70 | > 20 µM
CCC(=O)OC1(c2ccccc2)CCN(C)CC1C (stereo not drawn) [ALPHAPRODINE] | < 4.70 | > 20 µM
CCCN(CCC)C(=O)Cc1c(-c2ccc(Cl)cc2)nc2ccc(Cl)cn12 [ALPIDEM] | < 4.70 | > 20 µM
Cc1nnc2n1-c1ccc(Cl)cc1C(c1ccccc1)=NC2 [ALPRAZOLAM] | < 4.70 | > 20 µM
C=CCc1ccccc1OCC(O)CNC(C)C (stereo not drawn) [ALPRENOLOL] | < 4.70 | > 20 µM
CCCCC[C@H](O)/C=C/[C@H]1[C@H](O)CC(=O)[C@@H]1CCCCCCC(=O)O [ALPROSTADIL] | < 4.70 | > 20 µM
O=C(O)CN1C(=O)c2cccc3cccc(c23)C1=O [ALRESTATIN] | < 4.70 | > 20 µM
O=C(c1ccc(F)cc1)C1CCN(CCn2c(=S)[nH]c3ccccc3c2=O)CC1 [ALTANSERIN] | < 4.70 | > 20 µM
C=CCSCC1Nc2cc(Cl)c(S(N)(=O)=O)cc2S(=O)(=O)N1 (stereo not drawn) [ALTHIAZIDE] | < 4.70 | > 20 µM
C#Cc1cncc([C@@H]2CCCN2C)c1 [ALTINICLINE] | < 4.70 | > 20 µM

SMILES | pIC50 | IC50
C=CC[C@]1(O)CC[C@H]2[C@@H]3CCC4=CC(=O)CCC4=C3C=C[C@@]21C [ALTRENOGEST] | < 4.70 | > 20 µM
CN(C)c1nc(N(C)C)nc(N(C)C)n1 [ALTRETAMINE] | < 4.70 | > 20 µM
CCN(CCCc1ccccc1)CCCc1ccccc1 [ALVERINE] | < 4.70 | > 20 µM
Nc1ncnc(Nc2ccccc2)n1 [AMANOZINE] | < 4.70 | > 20 µM
NC12CC3CC(CC(C3)C1)C2 [AMANTADINE] | < 4.70 | > 20 µM
Nc1ccc(C(=O)N2CC3CC(CN(Cc4ccccc4)C3)C2)cc1 [AMBASILIDE] | < 4.70 | > 20 µM
N=C(N)NN=C1C=CC(=NNC(N)=S)C=C1 [AMBAZONE] | < 4.70 | > 20 µM
COC(c1ccccc1)(c1ccccc1)[C@H](Oc1nc(C)cc(C)n1)C(=O)O [AMBRISENTAN] | < 4.70 | > 20 µM
Nc1c(Br)cc(Br)cc1CN[C@H]1CC[C@H](O)CC1 [AMBROXOL] | < 4.70 | > 20 µM
CCCCN(CCCC)C(C(N)=O)c1ccc(OC)cc1 (stereo not drawn) [AMBUCETAMIDE] | < 4.70 | > 20 µM
CC[N+](C)(C)CCC(C(N)=O)(c1ccccc1)c1ccccc1 [AMBUTONIUM] | < 4.70 | > 20 µM
CC(=O)OCC(=O)[C@@]12OC3(CCCC3)O[C@@H]1C[C@H]1[C@@H]3CCC4=CC(=O)C=C[C@]4(C)[C@@]3(F)[C@@H](O)C[C@@]12C [AMCINONIDE] | < 4.70 | > 20 µM
CC(C)(C)C(=O)OCOC(=O)[C@@H]1N2C(=O)[C@@H](/N=C/N3CCCCCC3)[C@H]2SC1(C)C [AMDINOCILLIN PIVOXIL] | < 4.70 | > 20 µM
CNCCCC1(C)C(=O)N(c2ccccc2)c2ccccc21 (stereo not drawn) [AMEDALIN] | < 4.70 | > 20 µM
Nc1c(CC(=O)O)cccc1C(=O)c1ccccc1 [AMFENAC] | < 4.70 | > 20 µM
CCn1cc(C(=O)O)c(=O)c2ccc(Cc3ccccc3)nc21 [AMFONELIC ACID] | < 4.70 | > 20 µM
NC(=O)Nc1ccc(S(=O)(=O)c2ccc(N)cc2)cc1 [AMIDAPSONE] | < 4.70 | > 20 µM
CNCC(O)c1cccc(NS(C)(=O)=O)c1 (stereo not drawn) [AMIDEPHRINE MESYLATE] | < 4.70 | > 20 µM
Nc1ccncc1N [AMIFAMPRIDINE] | < 4.70 | > 20 µM
